Test results taken from PubChem BioAssay AID1259411 (Chemical Carcinogenesis Research Information System (CCRIS), 2018).
Activity calls are given as the source filed them. The rule behind the calls is not given here.

System: rodent carcinogenicity bioassays, tumor incidence
Assay: CCRIS carcinogenicity studies
Details: Route: ORAL, Dose: 0
Procedure, shortened: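 NCI-built, expert-reviewed records of carcinogenicity and related test outcomes (mutagenicity, tumor promotion/inhibition) compiled from published and report sources, historical span 1985-2011, not updated.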

## COc1ccc([N+](=O)[O-])cc1N
Species: MOUSE, Strain/Sex: B6C3F1/FEMALE, 0.8% IN DIET FOR 78 WK (STUDY DURATION: 97 WK)
  carcinogen call: inactive; negative
Species: MOUSE, Strain/Sex: B6C3F1/FEMALE, 1.6% IN DIET FOR 15 WK FOLLOWING BY 0.4% FOR LAST 63 WK (STUDY DURATION: 97 WK), Tumor Site: Type of Lesion: LIVER: HEPATOCELLULAR CARCINOMA
  carcinogen call: active; positive
Species: MOUSE, Strain/Sex: B6C3F1/MALE, 0.8% IN DIET FOR 78 WK (STUDY DURATION: 97 WK), Tumor Site: Type of Lesion: LIVER: HEPATOCELLULAR CARCINOMA
  carcinogen call: equivocal
Species: MOUSE, Strain/Sex: B6C3F1/MALE, 1.6% IN DIET FOR FIRST 15 WK FOLLOWING BY 0.4% FOR 63 WK (STUDY DURATION: 97 WK)
  carcinogen call: inactive; negative
Species: RAT, Strain/Sex: F344/FEMALE, 0.4, 0.8% IN DIET FOR 78 WK (STUDY DURATION: 106-108 WK), 0.4, 0.8% IN DIET FOR 78 WK (STUDY DURATION: 106-108 WK), Tumor Site: Type of Lesion: CLITORAL GLAND: CARCINOMA (NOS), CARCINOMA (NOS) OR SQUAMOUS CELL CARCINOMA, ADENOMA (NOS) OR PAPILLARY ADENOMA OR CARCI
  carcinogen call: active; positive
Species: RAT, Strain/Sex: F344/MALE, 0.4, 0.8% IN DIET FOR 78 WK (STUDY DURATION: 102-109 WK), 0.4, 0.8% IN DIET FOR 78 WK (STUDY DURATION: 102-109 WK), Tumor Site: Type of Lesion: INTEGUMENTARY SYSTEM (SKIN): BASAL CELL CARCINOMA, TRICHOEPITHELIOMA;INTEGUMENTARY SYSTEM (EXCLUDING SKIN OF EAR): SQUAM
  carcinogen call: active; positive

## O=C(O)CN(CC(=O)O)CC(=O)O
Species: MOUSE, Strain/Sex: B6C3F1/FEMALE, 2500, 5000 PPM IN DIET (STUDY DURATION: 18 MO), 2500, 5000 PPM IN DIET (STUDY DURATION: 18 MO)
  carcinogen call: inactive; negative
Species: MOUSE, Strain/Sex: B6C3F1/FEMALE, 7500, 15000 PPM IN DIET, 7500, 15000 PPM IN DIET
  carcinogen call: inactive; negative
Species: MOUSE, Strain/Sex: B6C3F1/MALE, 2500, 5000 PPM IN DIET (STUDY DURATION: 18 MO), 2500, 5000 PPM IN DIET (STUDY DURATION: 18 MO)
  carcinogen call: inactive; negative
Species: MOUSE, Strain/Sex: B6C3F1/MALE, 7500, 15000 PPM IN DIET, 7500, 15000 PPM IN DIET, Tumor Site: Type of Lesion: KIDNEY: MALIGNANT TUMOR
  carcinogen call: active; positive
Species: RAT, Strain/Sex: F344/FEMALE, 200, 2000, 20000 PPM IN DIET (STUDY DURATION: 24 MO), 200, 2000, 20000 PPM IN DIET (STUDY DURATION: 24 MO), Tumor Site: Type of Lesion: URINARY BLADDER: TUMOR, URETER: TUMOR, KIDNEY: TUMOR, Tumor Site: Type of Lesion: URINARY BLADDER: TUMOR, URETER: TUMOR, KIDNEY: TUMOR
  carcinogen call: active; positive
Species: RAT, Strain/Sex: F344/FEMALE, 7500, 1500 PPM IN DIET (STUDY DURATION: 18 MO), 7500, 1500 PPM IN DIET (STUDY DURATION: 18 MO), Tumor Site: Type of Lesion: URINARY BLADDER: PAPILLOMA OR SQUAMOUS CELL CARCINOMA OR TRANSITIONAL CELL CARCINOMA
  carcinogen call: equivocal
Species: RAT, Strain/Sex: F344/FEMALE, 7500, 15000 PPM IN DIET, 7500, 15000 PPM IN DIET, Tumor Site: Type of Lesion: URINARY BLADDER: MALIGNANT TUMOR
  carcinogen call: active; positive
Species: RAT, Strain/Sex: F344/MALE, 200, 2000, 20000 PPM IN DIET (STUDY DURATION: 24 MO), 200, 2000, 20000 PPM IN DIET (STUDY DURATION: 24 MO), Tumor Site: Type of Lesion: KIDNEY: TUMOR, URETER: TUMOR
  carcinogen call: active; positive
Species: RAT, Strain/Sex: F344/MALE, 7500, 15000 PPM IN DIET (STUDY DURATION: 18 MO), 7500, 15000 PPM IN DIET (STUDY DURATION: 18 MO), Tumor Site: Type of Lesion: KIDNEY: TUBULAR CELL ADENOCARCINOMA OR SARCOMA METASTATIC OR HAMARTOMA, RENAL PELVIS: TRANSIT CELL PAPILLOMA
  carcinogen call: equivocal
Species: RAT, Strain/Sex: F344/MALE, 7500, 15000 PPM IN DIET, 7500, 15000 PPM IN DIET
  carcinogen call: inactive; negative
Species: RAT, Strain/Sex: SPRAGUE-DAWLEY/MALE, 1000 PPM (PURITY NOT REPORTED) IN DRINKING WATER FOR 2 YR, Tumor Site: Type of Lesion: KIDNEY: TUBULAR CELL ADENOMA OR ADENOCARCINOMA
  carcinogen call: active; positive

## CNC(=O)Oc1cc(C)c(N(C)C)c(C)c1
Species: MOUSE, Strain/Sex: B6C3F1/FEMALE, 68, 135 PPM IN DIET, TWA, 68, 135 PPM IN DIET, TWA
  carcinogen call: inactive; negative
Species: MOUSE, Strain/Sex: B6C3F1/MALE, 327, 654 PPM IN DIET, TWA, 327, 654 PPM IN DIET, TWA
  carcinogen call: inactive; negative
Species: RAT, Strain/Sex: OSBORNE-MENDEL/FEMALE, 339, 678 PPM IN DIET, TWA, 339, 678 PPM IN DIET, TWA
  carcinogen call: inactive; negative
Species: RAT, Strain/Sex: OSBORNE-MENDEL/MALE, 209, 418 PPM IN DIET, TWA, 209, 418 PPM IN DIET, TWA
  carcinogen call: inactive; negative
